Results as given in patent publication US20240150293A1, “SPIROCYCLOHEXANE DERIVATIVES, PHARMACEUTICAL COMPOSITIONS CONTAINING THEM AND THEIR USES AS ANTI-APOPTOTIC INHIBITORS” (LES LABORATOIRES SERVIER, priority 2021, published 2024).
Like-named read-outs stand apart in the source and are kept apart here.

Key:
[1] = system: H929 multiple myeloma tumor line; test: In vitro cytotoxicity, MTT assay (Example B, Method A); type: cell-based; conditions: H929 cells, 48 hours exposure, read-out: C50
Protocol: The cytotoxicity studies were carried out on the H929 multiple myeloma tumor line.
The cells are distributed onto microplates and exposed to the test compounds for 48 hours. The cell viability is then quantified by a colorimetric assay, the Microculture Tetrazolium Assay (Carmichael et al, Cancer Res. 1987, 47, 939-942).
The results are expressed in C50 which means concentration corresponding to […] of effect/inhibition.

[2] = molecular target: Cy5-labelled Mcl1 (amino acids 171-321) C286S protein (UniProtKB Q07820) (Homo sapiens (Human), UniProt Q07820, C286S); test: Inhibition of Mcl-1 by the fluorescence quenching assay (Example A, Method B); type: binding
Sequence of Cy5-labelled Mcl1 (amino acids 171-321) C286S protein (Q07820 171-321 C286S): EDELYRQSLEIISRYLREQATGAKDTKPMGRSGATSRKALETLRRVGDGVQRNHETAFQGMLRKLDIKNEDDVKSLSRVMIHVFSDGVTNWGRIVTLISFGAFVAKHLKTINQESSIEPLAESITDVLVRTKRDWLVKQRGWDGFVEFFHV
Outline: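 Cy5-labelled Mcl1 171-321 C286S (1 nM) quenched by TQ5WS-labelled PUMA peptide (10, 20 or 400 nM); displacement raises fluorescence (Ex 620/Em 680 nm). Buffer 10 mM HEPES, 150 mM NaCl, 0.05% Tween 20, pH 7.4, 5% DMSO; 2 h at room temperature, 11-point curves, IC50 converted to Ki (cKi/eKi).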

SMILES	Ki [2] [nM]	Ki ([2]; Ki determined from IC50) [nM]	IC50 ([1]; Homo sapiens, NCI-H929, 48 h) [nM]	IC50 [1] [nM]
C[C@H]1Cc2c(OC[C@H](C)C[C@H]3Cc4ccccc4[C@]34CC[C@@](Nc3cccc(Cl)c3)(C(=O)O)CC4)ccnc2[C@H](O)C1 (racemic) [Example 670, (1r,2′S,4S)-4-(3-chloroanilino)-2′-[(2R)-3-{[(6RS,8SR)-8-hydroxy-6-methyl-5,6,7,8-tetrahydroquinolin-4-yl]oxy}-2-methylpropyl]-2′,3′-dihydrospiro[cyclohexane-1,1′-indene]-4-carboxylic acid]	41.6	–	3600	–
C[C@@H](COc1ccnc2ccsc12)CC1=Cc2ccccc2[C@]12CC[C@@](Nc1cccc(Cl)c1)(C(=O)O)CC2 [Example 589, (1r,4R)-4-(3-chloroanilino)-2′-{(2R)-2-methyl-3-[(thieno[3,2-b]pyridin-7-yl)oxy]propyl}spiro[cyclohexane-1,1′-indene]-4-carboxylic acid]	8.39	–	694	–
C[C@@H](COc1ccnc2c1CCC[C@H]2O)C[C@H]1Cc2ccccc2[C@]12CC[C@@](Nc1cccc(Cl)c1)(C(=O)O)CC2 [Example 668, (1r,2′S,4S)-4-(3-chloroanilino)-2′-[(2R)-3-{[(8R)-8-hydroxy-5,6,7,8-tetrahydroquinolin-4-yl]oxy}-2-methylpropyl]-2′,3′-dihydrospiro[cyclohexane-1,1′-indene]-4-carboxylic acid]	2.74	–	355	–
C[C@@H](COc1ccnc2c1[C@@H](C)CCC2)C[C@H]1Cc2ccccc2[C@]12CC[C@@](Nc1cccc(Cl)c1)(C(=O)O)CC2 [Example 654, (1r,2′S,4S)-4-(3-chloroanilino)-2′-[(2R)-2-methyl-3-{[(5S)-5-methyl-5,6,7,8-tetrahydroquinolin-4-yl]oxy}propyl]-2′,3′-dihydrospiro[cyclohexane-1,1′-indene]-4-carboxylic acid]	5.2	–	765	–
C[C@@H](COc1ccnc2ccsc12)C[C@H]1Cc2ccccc2[C@]12CC[C@@](Nc1cccc(Cl)c1)(C(=O)O)CC2 [Example 591, (1r,2′S,4S)-4-(3-chloroanilino)-2′-{(2R)-2-methyl-3-[(thieno[3,2-b]pyridin-7-yl)oxy]propyl}-2′,3′-dihydrospiro[cyclohexane-1,1′-indene]-4-carboxylic acid]	2.72	–	438	–
C[C@@H]1CCCc2nccc(OCC(F)CC3Cc4ccccc4[C@]34CC[C@@](Nc3cccc(Cl)c3)(C(=O)O)CC4)c21 (single isomer, unassigned) [Example 508]	20.3	–	–	3640
C[C@@H](COc1ncnc2c1[C@H](C)CCC2)C[C@H]1Cc2ccccc2[C@]12CC[C@@](Nc1cccc(Cl)c1)(C(=O)O)CC2 [Example 638, (1r,2′S,4S)-4-(3-chloroanilino)-2′-[(2R)-2-methyl-3-{[(5R)-5-methyl-5,6,7,8-tetrahydroquinazolin-4-yl]oxy}propyl]-2′,3′-dihydrospiro[cyclohexane-1,1′-indene]-4-carboxylic acid]	3.76	–	373	–
CCCC#C[C@@H](COc1ccnc2ccsc12)CC1=Cc2ccccc2[C@]12CC[C@@](Nc1cccc(Cl)c1)(C(=O)O)CC2 [Example 565, (1r,4S)-4-(3-chloroanilino)-2′-[(2S)-2-{[(thieno[3,2-b]pyridin-7-yl)oxy]methyl}hept-3-yn-1-yl]spiro[cyclohexane-1,1′-indene]-4-carboxylic acid]	10.8	–	2390	–
CC(C)c1cnccc1OC[C@H](C)C[C@H]1Cc2ccccc2[C@]12CC[C@@](Nc1cccc(Cl)c1)(C(=O)O)CC2 [Example 587, (1r,2′S,4S)-4-(3-chloroanilino)-2′-[(2R)-2-methyl-3-{[3-(propan-2-yl)pyridin-4-yl]oxy}propyl]-2′,3′-dihydrospiro[cyclohexane-1,1′-indene]-4-carboxylic acid]	3.93	–	679	–
O=C(O)[C@]1(Nc2cccc(Cl)c2)CC[C@@]2(CC1)c1ccccc1CN2CCCOc1ccnc2ccsc12 [Example 36, (1s,4s)-4-(3-chloroanilino)-2′-{3-[(thieno[3,2-b]pyridin-7-yl)oxy]propyl}-2′,3′-dihydrospiro[cyclohexane-1,1′-isoindole]-4-carboxylic acid]	–	749	18500	–
C[C@@H](COc1ccnc2c1CCC2F)C[C@H]1Cc2ccccc2[C@]12CC[C@@](Nc1cccc(Cl)c1)(C(=O)O)CC2 (stereo partly drawn) [Example 603, (1r,2′S,4S)-4-(3-chloroanilino)-2′-{(2R)-3-[(7-fluoro-6,7-dihydro-5H-cyclopenta[b]pyridin-4-yl)oxy]-2-methylpropyl}-2′,3′-dihydrospiro[cyclohexane-1,1′-indene]-4-carboxylic acid]	8	–	1110	–
CC1CCc2nccc(OC[C@H](C)CC3=Cc4ccccc4[C@]34CC[C@@](Nc3cccc(Cl)c3)(C(=O)O)CC4)c21 (single isomer, unassigned) [Example 629]	9.55	–	–	880
C[C@@H](COc1ccnc2c1[C@H](C)CC[C@H]2O)C[C@H]1Cc2ccccc2[C@]12CC[C@@](Nc1cccc(Cl)c1)(C(=O)O)CC2 [Example 673, (1r,2′S,4S)-4-(3-chloroanilino)-2′-[(2R)-3-{[(5R,8S)-8-hydroxy-5-methyl-5,6,7,8-tetrahydroquinolin-4-yl]oxy}-2-methylpropyl]-2′,3′-dihydrospiro[cyclohexane-1,1′-indene]-4-carboxylic acid]	0.647	–	–	208
C[C@@H](COc1ncnc2c1[C@H](C)CC2)CC1Cc2ccccc2[C@]12CC[C@@](Nc1cccc(Cl)c1)(C(=O)O)CC2 (stereo partly drawn) [Example 597, (1r,4R)-4-(3-chloroanilino)-2′-[(2R)-2-methyl-3-{[(5R)-5-methyl-6,7-dihydro-5H-cyclopenta[d]pyrimidin-4-yl]oxy}propyl]-2′,3′-dihydrospiro[cyclohexane-1,1′-indene]-4-carboxylic acid]	5.36	–	1310	–
O=C(O)[C@]1(Nc2cccc(Cl)c2)CC[C@@]2(CC1)c1ccccc1CC2CC(COc1ccnc2c1CCC2)COc1ccnc2c1CCC2 (single isomer, unassigned) [Example 497, (1r,4r)-4-(3-chloroanilino)-2′-(3-[(6,7-dihydro-5H-cyclopenta[b]pyridin-4-yl)oxy]-2-{[(6,7-dihydro-5H-cyclopenta[b]pyridin-4-yl)oxy]methyl}propyl)-2′,3′-dihydrospiro[cyclohexane-1,1′-indene]-4-carboxylic acid]	1.34	–	–	1220

Further lines, with some results ahead:

Ki [2] [nM]	Ki ([2]; Ki determined from IC50) [nM]	SMILES	IC50 ([1]; Homo sapiens, NCI-H929, 48 h) [nM]	IC50 [1] [nM]
1.98	–	Cc1cc2c(cc1C)[C@]1(CC[C@@](Nc3cccc(Cl)c3)(C(=O)O)CC1)[C@H](C[C@@H](C)COc1ccnc3ccsc13)C2 [Example 734, (1r,2′R,4R)-4-(3-chloroanilino)-5′,6′-dimethyl-2′-{(2R)-2-methyl-3-[(thieno[3,2-b]pyridin-7-yl)oxy]propyl}-2′,3′-dihydrospiro[cyclohexane-1,1′-indene]-4-carboxylic acid]	194	–
0.113	–	CC(O)c1ccc2c(c1)[C@]1(CC[C@@](Nc3cccc(Cl)c3)(C(=O)O)CC1)[C@@H](C[C@@H](C)COc1ccnc3c1[C@H](C)CC[C@H]3O)C2 (single isomer, unassigned) [Example 862]	–	73.8
5.8	–	C[C@@H](COc1ccnc2c1C(F)CCC2)C[C@H]1Cc2ccccc2[C@]12CC[C@@](Nc1cccc(Cl)c1)(C(=O)O)CC2 (single isomer, unassigned) [Example 685]	–	1460
1.5	–	C[C@@H](COc1ccnc2c1[C@H](C)CCC2)CC1Cc2c(F)c(Cl)ccc2[C@]12CC[C@@](Nc1cccc(Cl)c1)(C(=O)O)CC2 (single isomer, unassigned) [Example 748]	138	–
1.55	–	C[C@@H](COc1ccnc2c1[C@@H](C)CCC2)C[C@H]1Cc2cc3c(cc2[C@]12CC[C@@](Nc1cccc(Cl)c1)(C(=O)O)CC2)OCO3 [Example 842, (1r,4S,6′S)-4-(3-chloroanilino)-6′-[(2R)-2-methyl-3-{[(5S)-5-methyl-5,6,7,8-tetrahydroquinolin-4-yl]oxy}propyl]-6′,7′-dihydro-2′H-spiro[cyclohexane-1,5′-indeno[5,6-d][1,3]dioxole]-4-carboxylic acid]	81	–
0.321	–	C[C@@H](COc1ccnc2c1[C@H](C)CCC2)CC1Cc2c(F)c(Cl)ccc2[C@]12CC[C@@](Nc1cccc(Cl)c1)(C(=O)O)CC2 (single isomer, unassigned) [Example 749]	–	72.4
106	–	C[C@@H](COc1ccnc2c1CCCC2C(F)F)C[C@H]1Cc2ccccc2[C@]12CC[C@@](Nc1cccc(Cl)c1)(C(=O)O)CC2 (single isomer, unassigned) [Example 683]	–	9850
0.864	–	CC(=O)c1ccc2c(c1)[C@]1(CC[C@@](Nc3cccc(Cl)c3)(C(=O)O)CC1)C(C[C@@H](C)COc1ccnc3c1[C@H](C)CCC3)=C2 [Example 856, (1r,4R)-6′-acetyl-4-(3-chloroanilino)-2′-[(2R)-2-methyl-3-{[(5R)-5-methyl-5,6,7,8-tetrahydroquinolin-4-yl]oxy}propyl]spiro[cyclohexane-1,1′-indene]-4-carboxylic acid]	74.8	–
